This passage reports cytotoxicity results from ChEMBL document CHEMBL3507680, “University of Dundee, Gates Library screen for HepG2 cell viability”.

The nature of the data set: Human HepG2 cell viability assay in 384 well format. The note with it: HepG2 cells, read-out: Inhibition. On the set-up: dose 125 nL, time 70.5 hour; cytotoxicity at 70.5 h: concentration not given beside the values. Format: toxicity, cell-based.
With `Cc1nn(C)c(Cl)c1C1CCCN1Cc1cn2ccsc2n1` (stereo not drawn), the cytotoxicity at 70.5 h is -1.16%. The result for `CCS(=O)(=O)Nc1cnn(Cc2cccc(C)c2)c1` reads -3.36%; that for `c1coc(-c2nc(CNCCn3cccn3)cs2)c1`, -5.85%; that for `CNc1ncc2c(n1)CN(CCc1ccc(Cl)cc1)C2=O`, -5.88%. The result for `Cc1noc([C@@]23CCO[C@@H]2CCN(C(=O)CN(C)C)C3)n1` reads -0.0937%; that for `O=C([C@@H]1CCO[C@@H]2CCN(CC3CCOCC3)C[C@H]21)N1CCCC1`, -12.7%. The same measure for `Cc1c(C(C)Nc2ncnc3sccc23)cnn1C` (stereo not drawn): -8.04%; for `COCc1noc(-c2ccc(N(C)Cc3cn(C)nc3C)nc2)n1`: -5.15%. As to `O=C(c1cnccn1)N1C[C@@H]2CN(Cc3cccnc3)CCO[C@@H]2C1`, the cytotoxicity at 70.5 h was found to be 18.1%. The same measure for `O=C(NCCSC1CCCC1)c1cc(C2CC2)on1`: -0.97%. The same measure for `CN1CCC(NC(=O)Nc2ccc(F)c(-n3cccc3)c2)C1=O` (stereo not drawn): -12.5%; for `Cc1noc(C)c1CN(C)C(=O)c1n[nH]c(N)c1-c1ccccc1`: -5.4%; for `COc1cc(C)nc(N2CCN(C(=O)CCn3cc(C)cn3)CC2)n1`: -0.584%. With `CN1CCN2CCN(C(=O)c3cc4ncc(CCO)cn4n3)CC2C1` (stereo not drawn), the cytotoxicity at 70.5 h was -15.2%.

Take `CC(=O)N1CCN(S(=O)(=O)c2ccc(C)c(F)c2)CC1`: the cytotoxicity at 70.5 h was -4.35%. The result for `Cn1nc(Cn2cccn2)c2c1CN(Cc1ccsc1)C2` reads -1.91%; that for `COc1cccc(-c2n[nH]cc2CNCC2CCS(=O)(=O)C2)c1` (stereo not drawn), 0.998%. The result for `Cc1cn2c(n1)CCC(NC(=O)CCCOCc1ccccc1)C2` (stereo not drawn) reads -12.5%; that for `CSc1ncc(C(=O)N2C[C@H]3CC[C@@H]2CN(c2ncccn2)C3)cn1`, 24.3%; that for `O=C(N1CCCC1)N1CCC(c2nccn2Cc2cscn2)CC1`, -5.23%. The same measure for `CCOCC(=O)N1CCC(CSCc2ccco2)CC1`: -10.8%.

Take `Cc1cc(NC(=O)N2CCOCC2)nn1-c1cccc(Cl)c1`: the cytotoxicity at 70.5 h is -2.25%. Take `CN1CCO[C@@H]2CN(S(=O)(=O)c3cccs3)CC[C@@H]2C1`: the cytotoxicity at 70.5 h was -9.31%.

Consider `CC(C)C(=O)N1CCN(S(C)(=O)=O)CC2(CC(=O)N(C)C2)C1` (stereo not drawn), for which the cytotoxicity at 70.5 h is -7.11%. The result for `CCCN(Cc1nc(-c2ccoc2)oc1C)CC1CCCO1` (stereo not drawn) reads -6%; that for `Cc1ccc(N2CCC(c3nccn3Cc3cscn3)CC2)nn1`, 0.241%. Take `Cc1noc(C)c1CN1CCC2(COCc3cnc(N(C)C)nc32)C1` (stereo not drawn): the cytotoxicity at 70.5 h is -3.18%. The result for `CNCC(=O)N1CCCC(c2nccnc2Oc2cccc(F)c2)C1` (stereo not drawn) reads -10.3%; that for `NC(=O)CN1CCC(Nc2ccnc3ccc(Cl)cc23)CC1`, -1.05%.

As to `Cc1ccc([C@@H]2CN(C(=O)c3csc(C)n3)C[C@H]2NC(=O)C2CC2)cc1`, the cytotoxicity at 70.5 h was -12.3%. The result for `COc1c(C)cnc(CN2CCCC2c2noc(C3CC3)n2)c1C` (stereo not drawn) reads 1.14%; that for `Cc1c[nH]nc1C1CCCCN1C(=O)CNS(C)(=O)=O` (stereo not drawn), 9.79%. The same measure for `COCC(=O)N1CCC2(C1)c1ccccc1S(=O)(=O)N2C` (stereo not drawn): -9.08%; for `CCn1cc(S(=O)(=O)NCC(c2ccccc2)N2CCOCC2)c(C)n1` (stereo not drawn): 18.1%; for `CC(C)(C)CNC(=O)c1ccc(C(=O)O)nc1`: -9.27%.

Turning to `Cc1ccc(C(=O)N2C[C@@H]3CCCO[C@@H]3[C@H](N3CCOCC3)C2)cn1`, the cytotoxicity at 70.5 h amounted to 2.11%. The same measure for `Cc1c(C(=O)OCC2CC(=O)N(c3ccccc3)C2)cnn1C(C)C` (stereo not drawn): -0.00833%; for `O=C(CCC1CCCN(C(=O)CCc2ccc(F)c(F)c2)C1)NC1CC1` (stereo not drawn): -8.38%. The result for `O=C(NC1CCS(=O)(=O)C1)c1sccc1OC(F)F` (stereo not drawn) reads 0.608%. For the compound `Cc1ccn(CCC(=O)NCc2ccco2)n1`, the cytotoxicity at 70.5 h worked out at 0.885%. The same measure for `COCCN1C(=O)CC(N2CCN(c3ccc(F)cc3)CC2)C1=O` (stereo not drawn): 13.6%; for `Cc1nccn1-c1cncc(C2CCCN2Cc2ccccc2)n1` (stereo not drawn): 14.2%. The result for `Cc1cccnc1NC(=O)NCc1cccnc1OC(C)C` reads -6.17%; that for `Cc1oc(-c2ccco2)nc1CN1CCc2cncnc2C1`, -1.22%. The result for `CCOCC1CN(C(=O)Cc2ccccn2)Cc2cn(C)nc21` (stereo not drawn) reads -10.7%. For `CN(Cc1ccco1)Cc1ccccc1CNC(=O)c1cnc[nH]1`, the cytotoxicity at 70.5 h is 13.3%. The result for `CCn1cc(CN2CCCN(C(=O)C3(C#N)CCCCC3)CC2)cn1` reads 17.8%. The same measure for `CN1[C@@H](c2ccccc2)[C@@H](C(=O)NCc2ccncc2)C[C@@]1(C)C(=O)O`: -22.3%; for `O=C(c1cc(C2CC2)[nH]n1)N1CCN(Cc2ccc3c(c2)OCO3)CC1`: -2.82%; for `Cn1cnnc1C1CCN(C(=O)COCc2ccccc2Cl)CC1`: -11.8%.

As to `COCCN1C(=O)CC[C@]12CC[C@@H](NCc1nccs1)CC2`, the cytotoxicity at 70.5 h is -6.2%. The same measure for `CCn1nc2c(cc1=O)CN(CC(=O)N(C)c1nccs1)CC2`: 25.4%; for `COc1ccc(-c2n[nH]cc2C2SCC(=O)Nc3[nH]ncc32)cc1` (stereo not drawn): -9.36%. The same measure for `Cn1cc(C2=CCN(CCCC(=O)Nc3ccc(C#N)cc3)CC2)cn1`: 18.4%.

Consider `COCC1CCN(C(=O)c2cccc(S(=O)(=O)NC3CCCC3)c2)C1` (stereo not drawn), for which the cytotoxicity at 70.5 h is -6.74%.

For `Cc1nc(C2CCCN2C(=O)CC2CCCC2)ncc1C(N)=O` (stereo not drawn), the cytotoxicity at 70.5 h is -4.71%. On to `CS(=O)(=O)N1CCOCC2(CCN(Cc3ccoc3)CC2)C1`, for which the cytotoxicity at 70.5 h is -3.92%. The result for `O=C(NCCC1CN(Cc2cccnc2)CCO1)c1ccsc1` (stereo not drawn) reads 6.62%. The same measure for `COc1cc2c(cc1OC)CN(C(=O)NCC1CCCO1)CC2` (stereo not drawn): -3.43%; for `CC(C)N1CCN(C(=O)c2ccc(Cn3ccccc3=O)o2)CC1`: -5.81%; for `CCc1sc(C(=O)Nc2cnn(CC(N)=O)c2)cc1C`: 14.8%. The same measure for `CC(=O)N1CCN(C(=O)CN2CCc3c(ncn3C3CC3)C2)CC1`: 6.66%; for `COC(=O)Cn1c(=O)nc2n1C(=O)N(c1ccccc1)C2`: -8.59%.

For the compound `CCNC(=O)N(Cc1cccc(OC)c1)C1CCC(O)CC1` (stereo not drawn), the cytotoxicity at 70.5 h stood at 2.57%. The result for `COc1ccc(NC(=O)NCC(O)c2ccc(F)cc2F)c(OC)c1` (stereo not drawn) reads 2.76%. The result for `O=C(NCCc1c[nH]c2ccccc12)C1CCC(Cn2cnnn2)CC1` (stereo not drawn) reads 19.8%. As for `CC(=O)N(C)CC(=O)NCC1(c2c(F)cccc2F)CCCC1`, the cytotoxicity at 70.5 h came to 0.534%. The same measure for `CC(C)NC(=O)C1CCC2(CCNCC2)C1` (stereo not drawn): -1.82%; for `CCN(CC(=O)NC)C(=O)c1sc(Cc2ccccc2)nc1C`: -11.7%. The same measure for `CN(C)C(=O)N1C[C@@H](C(=O)NCc2ccco2)C[C@H]2OCC[C@H]21`: -4.06%; for `COCCOC1CCN(C(C(=O)O)c2c(Cl)cccc2OC)CC1` (stereo not drawn): -10.5%; for `CNC(=O)[C@@H]1COC[C@H]2CN(C(=O)c3ccc(C)c(F)c3)C[C@H]21`: -6.14%. The result for `Cc1noc(C)c1CN1CC2(CCCCN2c2cncnc2)CC1=O` (stereo not drawn) reads -3.04%. Regarding `Cn1cccc1-c1cc(C(=O)N2CCCC2c2cccnc2)[nH]n1` (stereo not drawn), the cytotoxicity at 70.5 h was -4.46%. Regarding `O=C(C1CCCO1)N1CCC2(CC1)COCCN2CC1CC1` (stereo not drawn), the cytotoxicity at 70.5 h worked out at 2.48%. The same measure for `N#Cc1cccc(CN2CCC3(CC2)CC(c2ccncc2)C(=O)N3)c1` (stereo not drawn): -0.0024%. The result for `COc1cccc(CC(=O)N2CC[C@H]3[C@@H]2CCC(=O)N3C)c1` reads 4.41%. The same measure for `COCc1cn(CC2CCN(Cc3c(C)[nH]c4ccccc34)CC2)nn1`: -7.19%; for `O=C1N[C@H]2OCCC[C@H]2[C@H](c2ccccc2)N1`: -12.3%; for `c1cc(C2CCCN2CC2CCCCC2)n[nH]1` (stereo not drawn): -8.35%.

As to `COCCNc1ccccc1CNC(=O)C1CCCOC1` (stereo not drawn), the cytotoxicity at 70.5 h is -2.32%. Regarding `CN(C)c1cc(C(=O)Nc2cccnc2N2CCSCC2)ccn1`, the cytotoxicity at 70.5 h was -9.49%. The result for `COC(=O)c1ccc2ccn(CC3CCCN(C)C3)c(=O)c2c1` (stereo not drawn) reads 25.4%; that for `COCCCNC(=O)CN(C)C(C)c1nc(C(C)C)no1` (stereo not drawn), -4.17%; that for `O=C(c1ccc(S(=O)(=O)N2CCSCC2)cc1)N1CCCCCC1`, 14.7%. The result for `CC(=O)c1cccc(CN2CC(Oc3ccccc3C)C2)c1` reads -3.39%; that for `CN(C)S(=O)(=O)N1CC[C@]2(C[C@H](OCc3ccncc3)CO2)C1`, -0.865%. The same measure for `Cc1cc(F)ccc1N1CCCC(Nc2nccn3cnnc23)C1=O` (stereo not drawn): -2.63%. In the case of `O=C(C1CC1)N1CCN(Cc2ccncc2)c2ncccc2C1`, the cytotoxicity at 70.5 h was -10.1%. The result for `COC(=O)c1ccc(N2CCN(CCN3CCOCC3)C(C)C2)cc1` (stereo not drawn) reads -6.62%; that for `O=C(c1ccccc1)C1CCN(c2cncc(-n3cccn3)n2)CC1`, 1.36%. Regarding `Cc1nnc(NC(=O)NCc2ccc(N3CCOCC3)nc2)s1`, the cytotoxicity at 70.5 h is -5.81%. The same measure for `COc1ccc(NS(=O)(=O)c2cnc(NC(C)=O)s2)cc1`: -8.08%; for `CCOCCCNC(=O)C1(C)CCC(=O)N1c1ccccc1OC` (stereo not drawn): -8.49%; for `CCOCC1CN(C(=O)COc2ccccc2)Cc2cn(C)nc21` (stereo not drawn): -4%. The result for `Cc1nc(CN2CCCC(N(C)Cc3cnc(C)s3)C2)no1` (stereo not drawn) reads -1.22%. The result for `CCC[C@@H]1CN(Cc2cc3c(cc2OC)OCCO3)C[C@H]1C(=O)O` reads -1.36%.

With `Cc1cccc(CN2C[C@@H](CN3CCCN(C)CC3)[C@@H](CO)C2)n1`, the cytotoxicity at 70.5 h was found to be 26.4%.
